Results published in patent US12653883B2 (priority 2018, dated 2026).
Values joined by “and” are separate entries in the source; they are usually repeats but may differ in a detail not shown here. Equal entries are not always repeated.

Legend:
[1] = test system: C57BL/6J mice; details: mouse, in vivo
[2] = test system: Balb/c mice; details: mouse, in vivo

C[C@@H]1CCN(C(=O)CC#N)C[C@@H]1N(C)c1ncnc2[nH]ccc12 [Tofacitinib]
Increase in luciferase expression by pretreatment [1]: ~60 fold
Mean antigen-specific T-cells, IFNg+ (% of CD8) [2]: 13 % of CD8 and 12.9 % of CD8
